How the values were obtained:
[1] = test system: ovariectomized BALB/c mice; experiment: microCT trabecular microstructure, proximal tibia metaphysis; type: in vivo, mouse (BALB/cJRj, female); settings: 28 days, vs OVX+vehicle, n=8
Method: Eight animals were randomly assigned to each group.
All animals received intraperitoneal administration of calcein green (10 mg/kg) 10 days and 2 days before sacrifice. Animals were housed in social groups and maintained in a 12 h:12 h light/dark cycle. They had free access to water and food. At necropsy, blood was collected by intracardiac aspiration into EDTA-treated tubes. Blood samples were centrifuged at 13,000 g for 15 min, aliquoted and stored at -80°C until plasma levels of exendin-4 (#EK-070-94, Phoenix pharmaceuticals, Burlingame, CA) and calcitonin (NBP3-06734, Bio-Techne Ltd, Abingdon, UK) were measured according to the manufacturer’s protocol. Plasma levels of the bone remodeling markers C-terminal telopeptide of collagen type I (CTx-I – RatLaps, Immunodiagnostic Systems Ltd, Boldon, UK) and N-terminal propeptide of type I collagen (P1NP - Rat/mouse P1NP, Immunodiagnostic Systems Ltd) were measured according to the manufacturers’ recommendation. Right femurs were wrapped in saline-soaked gauze and frozen at -20°C until use. Right tibiae were fixed in ethanol-based fixative and stored at 4°C until use. No specific inclusion or exclusion criteria were applied for animal selection. […] Additionally, correct implantation of the cerebral perfusion cannulas for icv-administered animals was verified at necropsy. All animals meeting these criteria were included in the study.
MicroCT analyses were performed at the proximal metaphysis of the right tibia and at the mid-diaphysis of the right femur with a Bruker 1272 microtomograph operated at 70 kV, 140 μA, 1000 ms integration time and imaging in ethanol 70. The isotropic pixel size was fixed at 4 μm, the rotation step at 0.25° and exposure was performed with a 0.5 mm aluminum filter. Hydroxyapatite phantoms (250 mg/cm^3 and 750 mg/cm^3) were used for calibration. Reconstruction of 2D projections was done with the NRecon software (Version 1.6.10.2). For tibial analysis, a trabecular volume of interest was located 0.5 mm below the growth plate at the proximal end and extended 2 mm down. Trabecular bone was separated from cortical bone with an automatic contouring script in CTan software (Version 1.20.8.0). The right femur was used for cortical microarchitecture. The region analyzed (0.5 mm) was centered at the midpoint between the third trochanter and the distal growth plate. Bone was segmented from soft tissue using global thresholding set at 300 mg/cm^3 for trabecular bone and 700 mg/cm^3 for cortical bone. All histomorphometrical parameters were measured with the CTan software according to guidelines and nomenclature proposed by the American Society for Bone and Mineral Research ([31]).

[2] = test system: mouse bone marrow-derived mesenchymal stem cell (BMMSC) cultures; experiment: Bone marrow-derived mesenchymal stem cell osteogenic differentiation; type: cell-based, mouse (BALB/cJRj); settings: 1 nM exendin-4, osteogenic medium, n = 5 independent experiments
Method: Femurs and tibias were isolated from 12-week-old female BALB/c mice (BALB/cJRj; Janvier Labs, Saint-Berthevin, France). Bones were rapidly dissected and cleared of soft tissue. The distal epiphyses were removed, and the marrow cavities were flushed with sterile PBS to collect bone marrow cells. Cells were suspended in growth medium composed of α-MEM supplemented with 10% fetal bovine serum, 100 U/mL penicillin-streptomycin, and 0.25 μL/mL Fungizone (Thermo Fisher Scientific), and seeded into 6-well plates at a density of 2.5 × 10^6 cells/well. Cultures were maintained at 37°C in a humidified incubator with 5% CO2. Cells remained undisturbed for 5 days to promote adherence. […]
On day 14, cells were washed with PBS and subjected to three freeze-thaw cycles. […] Enzymatic activity was measured using the fluorescent substrate 4-methylumbelliferyl phosphate (Sigma-Aldrich) as previously described ([38]).
On day 21, cells were fixed with 3.7% (w/v) formaldehyde in PBS for 10 min, rinsed with PBS, and stained with 1.5% (w/v) Alizarin Red S for 5 min. […] Bound dye was extracted using 10% acetic acid, neutralized with 10% ammonium hydroxide, and absorbance was measured at 550 nm using a spectrophotometer. […]

Substance: exendin-4 [Ex-4]
- change in Tb.N ([1]; icv Ex-4 70 pmol/day, p<0.001): 4%
- change in BV/TV ([1]; icv Ex-4 70 pmol/day, p=0.005): +6%
- increase in Tb.N ([1]; s.c. Ex-4 ~700 pmol/day, p<0.001): 6%
- increase in BV/TV ([1]; s.c. Ex-4 ~700 pmol/day, p=0.002): 11%
- alkaline phosphatase (ALP) activity ([2]; day 14): did not result in any significant increase
- extracellular matrix mineralization (Alizarin Red S) ([2]; day 21): did not result in any significant increase

Reference: PMC7618104, “The GLP-1 analogue, exendin-4, improves bone material properties and strength through a central relay in ovariectomized mice” (American journal of physiology. Endocrinology and metabolism, 2025)
